The supplement of paper PMC10627819

Legend:
B. subtilis 168 [1] = assay: fitness (endpoint OD595 vs no drug) (fraction); higher = more growth
Summary of the method: (§1)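 Cultures at OD595 0.01 were dispensed into 384-well plates in TSB, LB Lennox or CY and incubated at 37 °C. Every 30 min for 14 h, OD595 was read and corrected by the first reading. Fitness is the optical density at entry into stationary phase relative to the robust mean of no-drug control wells, capped at 1.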

S. aureus DSM 20231 [2] = assay: as above
Summary of the method: as §1

S. aureus Newman [3] = assay: as above
Summary of the method: as §1

S. pneumoniae D39V [4] = assay: as above
Summary of the method: as §1

B. subtilis 168 [5] = assay: Bliss interaction score (quartile over a dose matrix) (fitness difference); higher = more antagonism (negative = synergy)
Summary of the method: (§2)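 Values were capped at 1 after dividing OD595 at stationary-phase entry by the plate's robust no-drug mean. This ratio is fitness, and single-drug fitness was inferred from the combination data. The Bliss score is observed minus product-expected fitness, given as quartiles over technical, biological and donor/recipient replicates.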

S. aureus DSM 20231 [6] = assay: as above
Summary of the method: as §2

S. aureus Newman [7] = assay: as above
Summary of the method: as §2

S. pneumoniae D39V [8] = assay: as above
Summary of the method: as §2
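Throughout, for Bliss interaction score (quartile over a dose matrix): first quartile when negative (synergy) and third quartile when positive (antagonism).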

COc1cccc2c1C(=O)c1c(O)c3c(c(O)c1C2=O)C[C@@](O)(C(=O)CO)C[C@@H]3O[C@H]1C[C@H](N)[C@H](O)[C@H](C)O1 [Doxorubicin] + CC1=C\[C@@H](O)CC(=O)Cc2nc(co2)C(=O)N2CCC=C2C(=O)O[C@H](C(C)C)[C@H](C)/C=C/C(=O)NC\C=C\1 [Virginiamycin M1]
fitness
Conditions	first compound 0.25 µg/mL	first compound 0.5 µg/mL	first compound 0.625 µg/mL	first compound 1 µg/mL	first compound 1.25 µg/mL	first compound 2.5 µg/mL
B. subtilis 168 [1], partner 0.0625 µg/mL	–	–	0.975	–	0.901	0.653
B. subtilis 168 [1], partner 0.125 µg/mL	–	–	0.939	–	0.904	0.639
B. subtilis 168 [1], partner 0.25 µg/mL	–	–	0.96	–	0.911	0.7
S. aureus DSM 20231 [2], partner 0.0625 µg/mL	–	–	0.874	–	0.872	0.779
S. aureus DSM 20231 [2], partner 0.125 µg/mL	–	–	0.944	–	0.903	0.82
S. aureus DSM 20231 [2], partner 0.25 µg/mL	–	–	0.873	–	0.862	0.802
S. aureus Newman [3], partner 0.0625 µg/mL	–	–	0.76	–	0.766	0.768
S. aureus Newman [3], partner 0.125 µg/mL	–	–	0.795	–	0.802	0.756
S. aureus Newman [3], partner 0.25 µg/mL	–	–	0.788	–	0.784	0.746
S. pneumoniae D39V [4], partner 0.5 µg/mL	0.964	0.961	–	0.969	–	–
S. pneumoniae D39V [4], partner 1 µg/mL	0.997	≥ 1	–	0.951	–	–
S. pneumoniae D39V [4], partner 2 µg/mL	0.92	0.9	–	0.898	–	–

fitness, one replicate
Conditions	first compound 0.25 µg/mL	first compound 0.5 µg/mL	first compound 0.625 µg/mL	first compound 1 µg/mL	first compound 1.25 µg/mL	first compound 2.5 µg/mL
S. aureus DSM 20231 [2], partner 0.5 µg/mL	–	–	0.873	–	0.803	0.706
S. aureus DSM 20231 [2], partner 1 µg/mL	–	–	0.769	–	0.708	0.761
S. aureus Newman [3], partner 0.5 µg/mL	–	–	0.81	–	0.809	0.703
S. aureus Newman [3], partner 1 µg/mL	–	–	0.924	–	0.871	0.793
S. aureus Newman [3], partner 2 µg/mL	–	–	0.837	–	0.696	0.664
S. pneumoniae D39V [4], partner 0.15 µg/mL	0.86	0.865	–	0.911	–	–
S. pneumoniae D39V [4], partner 0.3 µg/mL	0.823	0.836	–	0.888	–	–

Conditions	Bliss interaction score
B. subtilis 168 [5]	0.0827
S. aureus DSM 20231 [6]	-0.0467
S. aureus Newman [7]	-0.0655
S. pneumoniae D39V [8]	0.0614

COc1cccc2c1C(=O)c1c(O)c3c(c(O)c1C2=O)C[C@@](O)(C(=O)CO)C[C@@H]3O[C@H]1C[C@H](N)[C@H](O)[C@H](C)O1 [Doxorubicin] + CCN(CC)CCOC(=O)c1ccc(N)cc1 [Procaine]
fitness
Conditions	first compound 0.25 µg/mL	first compound 0.5 µg/mL	first compound 0.625 µg/mL	first compound 1 µg/mL	first compound 1.25 µg/mL	first compound 2.5 µg/mL
B. subtilis 168 [1], partner 85.5 µg/mL	–	–	0.934	–	0.89	0.672
B. subtilis 168 [1], partner 171 µg/mL	–	–	0.961	–	0.894	0.654
B. subtilis 168 [1], partner 342 µg/mL	–	–	0.887	–	0.879	0.702
S. aureus DSM 20231 [2], partner 85.5 µg/mL	–	–	0.829	–	0.823	0.748
S. aureus DSM 20231 [2], partner 171 µg/mL	–	–	0.926	–	0.916	0.832
S. aureus DSM 20231 [2], partner 342 µg/mL	–	–	0.898	–	0.866	0.804
S. aureus Newman [3], partner 85.5 µg/mL	–	–	0.801	–	0.823	0.745
S. aureus Newman [3], partner 171 µg/mL	–	–	0.79	–	0.835	0.752
S. aureus Newman [3], partner 342 µg/mL	–	–	0.815	–	0.747	0.764
S. pneumoniae D39V [4], partner 85.5 µg/mL	0.988	≥ 1	–	0.917	–	–
S. pneumoniae D39V [4], partner 171 µg/mL	0.963	0.98	–	0.892	–	–
S. pneumoniae D39V [4], partner 342 µg/mL	0.97	0.996	–	0.855	–	–

Conditions	Bliss interaction score
B. subtilis 168 [5]	0.095
S. aureus DSM 20231 [6]	-0.0642
S. aureus Newman [7]	-0.058
S. pneumoniae D39V [8]	0.07

COc1cccc2c1C(=O)c1c(O)c3c(c(O)c1C2=O)C[C@@](O)(C(=O)CO)C[C@@H]3O[C@H]1C[C@H](N)[C@H](O)[C@H](C)O1 [Doxorubicin] + CN1C2=CC=CC=C2N=C3C1=CC=CC3=O [Pyocyanin]
Conditions	fitness
B. subtilis 168 [1], first compound 0.625 µg/mL, partner 1.25 µg/mL	0.888
B. subtilis 168 [1], first compound 0.625 µg/mL, partner 2.5 µg/mL	0.878
B. subtilis 168 [1], first compound 0.625 µg/mL, partner 5 µg/mL	0.684
B. subtilis 168 [1], first compound 1.25 µg/mL, partner 1.25 µg/mL	0.853
B. subtilis 168 [1], first compound 1.25 µg/mL, partner 2.5 µg/mL	0.841
B. subtilis 168 [1], first compound 1.25 µg/mL, partner 5 µg/mL	0.625
B. subtilis 168 [1], first compound 2.5 µg/mL, partner 1.25 µg/mL	0.631
B. subtilis 168 [1], first compound 2.5 µg/mL, partner 2.5 µg/mL	0.54
S. aureus DSM 20231 [2], first compound 0.625 µg/mL, partner 1.25 µg/mL	0.863
S. aureus DSM 20231 [2], first compound 0.625 µg/mL, partner 2.5 µg/mL	0.827
S. aureus DSM 20231 [2], first compound 0.625 µg/mL, partner 5 µg/mL	0.578
S. aureus DSM 20231 [2], first compound 1.25 µg/mL, partner 1.25 µg/mL	0.857
S. aureus DSM 20231 [2], first compound 1.25 µg/mL, partner 2.5 µg/mL	0.865
S. aureus DSM 20231 [2], first compound 1.25 µg/mL, partner 5 µg/mL	0.641
S. aureus DSM 20231 [2], first compound 2.5 µg/mL, partner 1.25 µg/mL	0.744
S. aureus DSM 20231 [2], first compound 2.5 µg/mL, partner 2.5 µg/mL	0.699
S. aureus DSM 20231 [2], first compound 2.5 µg/mL, partner 5 µg/mL	0.487
S. aureus Newman [3], first compound 0.625 µg/mL, partner 1.25 µg/mL	0.733
S. aureus Newman [3], first compound 0.625 µg/mL, partner 2.5 µg/mL	0.687
S. aureus Newman [3], first compound 0.625 µg/mL, partner 5 µg/mL	0.438
S. aureus Newman [3], first compound 1.25 µg/mL, partner 1.25 µg/mL	0.716
S. aureus Newman [3], first compound 1.25 µg/mL, partner 2.5 µg/mL	0.639
S. aureus Newman [3], first compound 2.5 µg/mL, partner 1.25 µg/mL	0.674
S. aureus Newman [3], first compound 2.5 µg/mL, partner 2.5 µg/mL	0.584
S. pneumoniae D39V [4], first compound 0.25 µg/mL, partner 0.325 µg/mL	0.986
S. pneumoniae D39V [4], first compound 0.25 µg/mL, partner 0.65 µg/mL	0.92
S. pneumoniae D39V [4], first compound 0.25 µg/mL, partner 1.3 µg/mL	0.766
S. pneumoniae D39V [4], first compound 0.5 µg/mL, partner 0.325 µg/mL	≥ 1
S. pneumoniae D39V [4], first compound 0.5 µg/mL, partner 0.65 µg/mL	0.938
S. pneumoniae D39V [4], first compound 0.5 µg/mL, partner 1.3 µg/mL	0.773
S. pneumoniae D39V [4], first compound 1 µg/mL, partner 0.325 µg/mL	0.942
S. pneumoniae D39V [4], first compound 1 µg/mL, partner 0.65 µg/mL	0.868
S. pneumoniae D39V [4], first compound 1 µg/mL, partner 1.3 µg/mL	0.729

Conditions	Bliss interaction score
B. subtilis 168 [5]	0.0456
S. aureus DSM 20231 [6]	-0.0672
S. aureus Newman [7]	-0.0556
S. pneumoniae D39V [8]	0.0322

COc1cccc2c1C(=O)c1c(O)c3c(c(O)c1C2=O)C[C@@](O)(C(=O)CO)C[C@@H]3O[C@H]1C[C@H](N)[C@H](O)[C@H](C)O1 [Doxorubicin] + CN(N=O)C(=O)N[C@@H](C=O)[C@@H](O)[C@H](O)[C@H](O)CO [Streptozotocin]
fitness
Conditions	first compound 0.25 µg/mL	first compound 0.5 µg/mL	first compound 0.625 µg/mL	first compound 1 µg/mL	first compound 1.25 µg/mL	first compound 2.5 µg/mL
B. subtilis 168 [1], partner 0.15 µg/mL	–	–	0.961	–	0.957	0.663
B. subtilis 168 [1], partner 0.3 µg/mL	–	–	≥ 1	–	0.956	0.582
B. subtilis 168 [1], partner 0.6 µg/mL	–	–	0.993	–	0.939	0.627
S. aureus DSM 20231 [2], partner 0.15 µg/mL	–	–	0.762	–	0.828	0.787
S. aureus DSM 20231 [2], partner 0.3 µg/mL	–	–	0.741	–	0.726	0.746
S. aureus DSM 20231 [2], partner 0.6 µg/mL	–	–	0.631	–	0.651	0.595
S. aureus Newman [3], partner 0.15 µg/mL	–	–	0.702	–	0.7	0.709
S. aureus Newman [3], partner 0.3 µg/mL	–	–	0.656	–	0.68	0.646
S. aureus Newman [3], partner 0.6 µg/mL	–	–	0.607	–	0.604	0.541
S. pneumoniae D39V [4], partner 1.2 µg/mL	0.919	0.929	–	0.852	–	–
S. pneumoniae D39V [4], partner 2.4 µg/mL	0.898	0.919	–	0.866	–	–
S. pneumoniae D39V [4], partner 4.8 µg/mL	0.966	0.972	–	0.91	–	–

Conditions	Bliss interaction score
B. subtilis 168 [5]	0.0771
S. aureus DSM 20231 [6]	-0.0251
S. aureus Newman [7]	0.11
S. pneumoniae D39V [8]	0.0618
